Measurements from patent publication US11053204B2, “Pyrimidinyloxy benzene derivatives as herbicides” (FMC Corporation, priority 2015, dated 2021).

How the values were obtained:
Format in all cases: in vivo
[1] = test system: barnyardgrass (Echinochloa crus-galli); assay: Test C preemergence, plant response rating; conditions: Echinochloa crus-galli, pre-emergence, Preemergence
[2] = test system: galium (catchweed bedstraw, Galium aparine); assay: Test C preemergence, plant response rating
kochia (Kochia scoparia) = assay: Test C preemergence, plant response rating
[3] = test system: field violet (Viola arvensis); assay: Test C postemergence, plant response rating; conditions: for Field Violet plant response rating: scale 0 to 100 (0 no effect, 100 complete control)
Outline: (§1)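 Preemergence: seeds sown in loam–sand blend or silt loam and sprayed with test chemicals in a non-phytotoxic surfactant-containing solvent. Postemergence: potted plants at 2–18 cm (1–4-leaf stage) sprayed with the same formulation. After 13–15 d in greenhouse, visual rating versus controls on 0 (no effect) to 100 (complete control) scale.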

[4] = test system: buckwheat, wild (wild buckwheat, Polygonum convolvulus); assay: Test C postemergence, plant response rating; conditions: for Buckwheat, Wild plant response rating: scale 0 to 100 (0 no effect, 100 complete control)
Outline: as §1

[5] = test system: wild poinsettia (Euphorbia heterophylla); assay: Test C postemergence, plant response rating; conditions: for Poinsettia, Wild plant response rating: scale 0 to 100 (0 no effect, 100 complete control)
Outline: as §1

[6] = test system: field poppy (Papaver rhoeas); assay: Test C postemergence, plant response rating; conditions: for Field Poppy plant response rating: scale 0 to 100 (0 no effect, 100 complete control)
Outline: as §1

[7] = test system: nightshade (eastern black nightshade, Solanum ptycanthum); assay: Test C postemergence, plant response rating; conditions: for Nightshade plant response rating: scale 0 to 100 (0 no effect, 100 complete control)
Outline: as §1

[8] = test system: pigweed, palmer (palmer pigweed, Amaranthus palmeri); assay: Test C postemergence, plant response rating; conditions: for Pigweed, Palmer plant response rating: scale 0 to 100 (0 no effect, 100 complete control)
Outline: as §1

[9] = test system: Canada thistle (Cirsium arvense); assay: Test C postemergence, plant response rating; conditions: for Canada Thistle plant response rating: scale 0 to 100 (0 no effect, 100 complete control)
Outline: as §1

[10] = test system: geranium, cutleaf (cutleaf geranium, Geranium dissectum); assay: Test C postemergence, plant response rating; conditions: for Geranium, Cutleaf plant response rating: scale 0 to 100 (0 no effect, 100 complete control)
Outline: as §1

[11] = test system: windgrass (Apera spica-venti); assay: Test C postemergence, plant response rating
Outline: as §1

[12] = test system: speedwell (bird's-eye speedwell, Veronica persica); assay: Test C postemergence, plant response rating; conditions: for Speedwell plant response rating: scale 0 to 100 (0 no effect, 100 complete control)
Outline: as §1

[13] = test system: wild mustard (Sinapis arvensis); assay: Test C postemergence, plant response rating; conditions: for Mustard, Wild plant response rating: scale 0 to 100 (0 no effect, 100 complete control)
Outline: as §1

[14] = test system: surinam grass (Brachiaria decumbens); assay: Test C postemergence, plant response rating
Outline: as §1

[15] = test system: johnsongrass (Sorghum halepense); assay: Test C postemergence, plant response rating; conditions: for Johnsongrass plant response rating: scale 0 to 100 (0 no effect, 100 complete control)
Outline: as §1

[16] = test system: johnsongrass (Sorghum halepense); assay: Test C preemergence, plant response rating
[17] = test system: nightshade (eastern black nightshade, Solanum ptycanthum); assay: Test C preemergence, plant response rating
[18] = 125 g ai/ha, scale 0 to 100 (0 no effect, 100 complete control)

SMILES: O=C(CCC(F)(F)F)c1c(Cl)cccc1Oc1ncc(Cl)cn1 [Compound 107, 1-[2-chloro-6-[(5-chloro-2-pyrimidinyl)oxy]phenyl]-4,4,4-trifluoro-1-butanone]
- pest or weed control at 125 g/ha ([1]; 125 g ai/ha, scale of 0 to 100): 100%
- pest or weed control at 16 g/ha ([1]; 16 g ai/ha, scale 0 to 100): 65%
- pest or weed control at 31 g/ha ([1]; 31 g ai/ha, scale 0 to 100): 85%
- pest or weed control at 62 g/ha ([1]; 62 g ai/ha, scale 0 to 100): 100%
- Plant response rating, Galium ([2]; 31 g ai/ha, scale 0 to 100): 60
- Plant response rating, Galium ([2]; 62 g ai/ha, scale 0 to 100): 90
- Plant response rating, Galium ([2]; 125 g ai/ha, scale of 0 to 100): 95
- Plant response rating, Kochia (kochia (Kochia scoparia); 31 g ai/ha, scale 0 to 100): 100
- Plant response rating, Kochia (kochia (Kochia scoparia); 62 g ai/ha, scale 0 to 100): 100
- Plant response rating, Kochia (kochia (Kochia scoparia); 125 g ai/ha, scale of 0 to 100): 100
- Plant response rating, Field Violet ([3]; 16 g ai/ha, scale of 0 to 100): 95
- Plant response rating, Field Violet ([3]; 31 g ai/ha, scale 0 to 100): 98
- Field Violet plant response rating ([3]; 62 g ai/ha): 98
- Field Violet plant response rating ([3]; 125 g ai/ha): 100
- Plant response rating, Buckwheat, Wild ([4]; 16 g ai/ha, scale of 0 to 100): 45
- Plant response rating, Buckwheat, Wild ([4]; 31 g ai/ha, scale 0 to 100): 75
- Buckwheat, Wild plant response rating ([4]; 62 g ai/ha): 75
- Buckwheat, Wild plant response rating ([4]; 125 g ai/ha): 100
- Plant response rating, Poinsettia, Wild ([5]; 16 g ai/ha, scale of 0 to 100): 70
- Plant response rating, Poinsettia, Wild ([5]; 31 g ai/ha, scale 0 to 100): 75
- Poinsettia, Wild plant response rating ([5]; 62 g ai/ha): 90
- Poinsettia, Wild plant response rating ([5]; 125 g ai/ha): 90
- Plant response rating, Field Poppy ([6]; 16 g ai/ha, scale of 0 to 100): 80
- Plant response rating, Field Poppy ([6]; 31 g ai/ha, scale 0 to 100): 98
- Field Poppy plant response rating ([6]; 62 g ai/ha): 98
- Field Poppy plant response rating ([6]; 125 g ai/ha): 100
- Plant response rating, Nightshade ([7]; 16 g ai/ha, scale of 0 to 100): 75
- Plant response rating, Nightshade ([7]; 31 g ai/ha, scale 0 to 100): 90
- Nightshade plant response rating ([7]; 62 g ai/ha): 98
- Nightshade plant response rating ([7]; 125 g ai/ha): 100
- Plant response rating, Pigweed, Palmer ([8]; 16 g ai/ha, scale of 0 to 100): 90
- Plant response rating, Pigweed, Palmer ([8]; 31 g ai/ha, scale 0 to 100): 95
- Pigweed, Palmer plant response rating ([8]; 62 g ai/ha): 100
- Pigweed, Palmer plant response rating ([8]; 125 g ai/ha): 100
- Plant response rating, Canada Thistle ([9]; 16 g ai/ha, scale of 0 to 100): 80
- Plant response rating, Canada Thistle ([9]; 31 g ai/ha, scale 0 to 100): 85
- Canada Thistle plant response rating ([9]; 62 g ai/ha): 90
- Canada Thistle plant response rating ([9]; 125 g ai/ha): 90
- Plant response rating, Geranium, Cutleaf ([10]; 16 g ai/ha, scale of 0 to 100): 25
- Plant response rating, Geranium, Cutleaf ([10]; 31 g ai/ha, scale 0 to 100): 35
- Geranium, Cutleaf plant response rating ([10]; 62 g ai/ha): 60
- Geranium, Cutleaf plant response rating ([10]; 125 g ai/ha): 75
- Plant response rating, Windgrass ([11]; 16 g ai/ha, scale of 0 to 100): 5
- Plant response rating, Windgrass ([11]; 31 g ai/ha, scale 0 to 100): 15
- Windgrass plant response rating [11, 18]: 50
- Plant response rating, Speedwell ([12]; 16 g ai/ha, scale of 0 to 100): 100
- Plant response rating, Speedwell ([12]; 31 g ai/ha, scale 0 to 100): 100
- Speedwell plant response rating ([12]; 62 g ai/ha): 100
- Speedwell plant response rating ([12]; 125 g ai/ha): 100
- Plant response rating, Mustard, Wild ([13]; 16 g ai/ha, scale of 0 to 100): 85
- Plant response rating, Mustard, Wild ([13]; 31 g ai/ha, scale 0 to 100): 90
- Mustard, Wild plant response rating ([13]; 62 g ai/ha): 95
- Mustard, Wild plant response rating ([13]; 125 g ai/ha): 100
- Plant response rating, Surinam Grass ([14]; 16 g ai/ha, scale of 0 to 100): 10
- Plant response rating, Surinam Grass ([14]; 31 g ai/ha, scale 0 to 100): 25
- Surinam Grass plant response rating [14, 18]: 35
- Plant response rating, Johnsongrass ([15]; 16 g ai/ha, scale of 0 to 100): 20
- Plant response rating, Johnsongrass ([15]; 31 g ai/ha, scale 0 to 100): 10
- Johnsongrass plant response rating ([15]; 62 g ai/ha): 35
- Johnsongrass plant response rating ([15]; 125 g ai/ha): 98
- Plant response rating, Johnsongrass ([16]; 31 g ai/ha, scale 0 to 100): 30
- Plant response rating, Johnsongrass ([16]; 62 g ai/ha, scale 0 to 100): 70
- Plant response rating, Johnsongrass ([16]; 125 g ai/ha, scale of 0 to 100): 80
- Plant response rating, Nightshade ([17]; 31 g ai/ha, scale 0 to 100): 60
- Plant response rating, Nightshade ([17]; 62 g ai/ha, scale 0 to 100): 80
- Plant response rating, Nightshade ([17]; 125 g ai/ha, scale of 0 to 100): 90
